Experimental findings from ChEMBL document CHEMBL1159364, “Inhibition of [3H]-LSD binding to 5-HT7 receptors by flavonoids from Scutellaria lateriflora” (J Nat Prod, 2003) are described below.

The test concerns the target 5-hydroxytryptamine receptor 7 (Homo sapiens, UniProt P34969). The test is described as follows: Displacement of [3H]LSD from human 5HT7 receptor expressed in CHO cells. Format: cell-based.

pIC50: −log10 of the molar value.

Sequence of 5-hydroxytryptamine receptor 7 (P34969 whole entry): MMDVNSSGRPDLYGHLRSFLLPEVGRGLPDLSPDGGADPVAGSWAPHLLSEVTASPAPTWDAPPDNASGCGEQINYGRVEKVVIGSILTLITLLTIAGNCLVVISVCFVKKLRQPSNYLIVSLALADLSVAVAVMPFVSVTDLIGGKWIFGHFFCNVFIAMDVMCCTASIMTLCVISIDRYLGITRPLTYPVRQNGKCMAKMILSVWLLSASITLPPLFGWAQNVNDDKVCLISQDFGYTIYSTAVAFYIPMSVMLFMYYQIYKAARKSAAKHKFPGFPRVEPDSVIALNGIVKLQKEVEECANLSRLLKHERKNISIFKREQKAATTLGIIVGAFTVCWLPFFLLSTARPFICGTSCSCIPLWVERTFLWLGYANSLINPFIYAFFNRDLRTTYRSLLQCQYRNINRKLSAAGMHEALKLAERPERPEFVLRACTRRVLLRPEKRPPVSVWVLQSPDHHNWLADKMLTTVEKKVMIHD

What is called pIC50 is the negative decadic logarithm of the IC50, by convention in mol/L. The low end stands for a large IC50, the high end for a small IC50. With `O=C(O)[C@H]1O[C@@H](Oc2cc3oc(-c4ccccc4O)cc(=O)c3c(O)c2O)[C@H](O)[C@@H](O)[C@@H]1O` [IKONNIKOSIDE I], the pIC50 is 3.87. The same measure for `O=C(O)[C@H]1O[C@@H](Oc2cc3oc(-c4ccc(O)cc4)cc(=O)c3c(O)c2O)[C@H](O)[C@@H](O)[C@@H]1O` [SCUTELLARIN]: 4.20. The same measure for `O=C1C[C@@H](c2ccccc2)Oc2cc(O[C@@H]3O[C@H](C(=O)O)[C@@H](O)[C@H](O)[C@H]3O)c(O)c(O)c21` [DIHYDROBAICALIN]: 3.75. In turn, `COc1c(O)cc(O)c2c(=O)cc(-c3ccccc3)oc12` [WOGONIN] gave a pIC50 of under 3.46. In turn, `O=C(O)[C@H]1O[C@@H](Oc2cc3oc(-c4ccccc4)cc(=O)c3c(O)c2O)[C@H](O)[C@@H](O)[C@@H]1O` [BAICALIN] showed a pIC50 of under 3.70.

For the compound `O=c1cc(-c2ccccc2)oc2cc(O)c(O)c(O)c12` [BAICALEIN], the pIC50 was under 3.46.
